Measurements as given in patent US11919902B2, “Aryl-bipyridine amine derivatives as phosphatidylinositol phosphate kinase inhibitors” (HiberCell, Inc., priority 2017, dated 2024).
pIC50: −log10 of the molar value.

Key:
[1] = target: T1, PIP4K2A (full length protein, SignalChem) (Homo sapiens, UniProt P48426); assay: Kinase Assay PIP4K2 A (Sprint); ADP-Glo biochemical assay; conditions: Table 2; compounds listed under IC50 range headings
T1 construct: 4 nM PIP4K2A (full length protein, SignalChem); purchased SignalChem
T1 sequence (P48426 1-406): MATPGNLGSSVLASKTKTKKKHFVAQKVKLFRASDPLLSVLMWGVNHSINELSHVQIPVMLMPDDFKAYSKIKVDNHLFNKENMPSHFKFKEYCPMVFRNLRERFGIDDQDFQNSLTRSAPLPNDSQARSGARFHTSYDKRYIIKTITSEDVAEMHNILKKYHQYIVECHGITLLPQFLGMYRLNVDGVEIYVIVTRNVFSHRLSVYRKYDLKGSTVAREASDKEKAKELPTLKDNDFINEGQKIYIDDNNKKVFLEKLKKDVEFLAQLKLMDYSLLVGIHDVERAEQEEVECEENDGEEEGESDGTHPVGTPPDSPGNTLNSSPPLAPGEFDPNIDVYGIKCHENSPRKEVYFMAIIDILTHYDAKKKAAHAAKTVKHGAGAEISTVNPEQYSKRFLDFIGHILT
How it was run: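 Compounds (10-point, 3-fold dilutions) were pre-incubated 15 min at RT with an enzyme/substrate mix of 4 nM full-length PIP4K2A and 100 μM PI(5)P diC8 in 20 mM MOPS pH 7.2, 25 mM MgCl2, 0.005% Tween 20. A 60 μM ATP solution was added, reaction 1 h RT; ADP read by ADP-Glo luminescence, IC50 fitted from % inhibition vs DMSO.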

GST tagged PIP4KtypeIIB = target: T2, GST tagged PIP4KtypeIIB (Homo sapiens, UniProt P78356); assay: Trans-FI P kinase assay PIP4K2B (PIP4KtypeIIB inhibition assay); assay type: biochemical; conditions: Table 4; compounds listed under IC50 range headings; 100 uM GTP, 5 nM PIP4KIIB; read-out: Trans-FI P kinase assays: PIP4K2B IC50
T2 construct: made in house; host or cells: E. coli
T2 sequence (P78356 1-416): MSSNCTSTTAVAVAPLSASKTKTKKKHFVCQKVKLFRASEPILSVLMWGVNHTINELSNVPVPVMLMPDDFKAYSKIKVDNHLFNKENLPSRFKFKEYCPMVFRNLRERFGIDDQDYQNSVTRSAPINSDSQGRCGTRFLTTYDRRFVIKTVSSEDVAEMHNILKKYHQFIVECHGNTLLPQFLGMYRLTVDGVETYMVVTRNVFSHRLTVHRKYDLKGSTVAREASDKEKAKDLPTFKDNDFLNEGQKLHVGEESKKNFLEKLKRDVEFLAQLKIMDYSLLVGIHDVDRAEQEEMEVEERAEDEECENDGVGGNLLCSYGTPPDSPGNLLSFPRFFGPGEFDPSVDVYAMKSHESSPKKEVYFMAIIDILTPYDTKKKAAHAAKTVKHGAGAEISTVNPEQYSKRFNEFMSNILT
How it was run: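 Purified GST-PIP4KIIB (5 nM final), 1 h preincubation with compound at 27 C, then 2 h reaction with 100 uM GTP and 80 uM PI5P plus DOPE carrier lipid in pH 7.3 HEPES/MgCl2/Triton buffer with 5% DMSO. GDP read by Transcreener FI fluorescence against a calibration curve; IC50 from % no-inhibitor activity vs log concentration.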

`CC(C)n1nnnc1-c1ccc(-c2cncc(-c3ccnc4c3cc3n4CCN(C)C3=O)c2)cc1` [Example 387, 4-(5-(4-(1-isopropyl-1H-tetrazol-5-yl)phenyl)pyridin-3-yl)-7-methyl-8,9-dihydropyrido[3′,2′:4,5]pyrrolo[1,2-a]pyrazin-6(7H)-one] was tested. Which pIC50 [1] did it give?
The pIC50 was 6.00 to 7.00.

And the pIC50 (GST tagged PIP4KtypeIIB)?
Its pIC50 is 8.00 to 9.00.

Which results are given for `CC(C)n1cnnc1-c1ccc(-c2cncc(-c3ccnc4[nH]c(C(=O)NCCCCCCCCNC(=O)COc5cccc6c5C(=O)N(C5CCC(=O)NC5=O)C6=O)cc34)c2)cc1` (stereo not drawn) [Example 388, N-(8-(2-((2-(2,6-dioxopiperidin-3-yl)-1,3-dioxoisoindolin-4-yl)oxy)acetamido)octyl)-4-(5-(4-(4-isopropyl-4H-1,2,4-triazol-3-yl)phenyl)pyridin-3-yl)-1H-pyrrolo[2,3-b]pyridine-2-carboxamide]?
pIC50 [1]: 6.00 to 7.00; pIC50 (GST tagged PIP4KtypeIIB): 6.00 to 7.00

What does the source list for `CC(C)n1cnnc1-c1ccc(-c2cncc(-c3ccnc4[nH]c(C(=O)NCCOCCOCCOCCNC(=O)COc5cccc6c5C(=O)N(C5CCC(=O)NC5=O)C6=O)cc34)c2)cc1` (stereo not drawn) [Example 389, N-(1-((2-(2,6-dioxopiperidin-3-yl)-1,3-dioxoisoindolin-4-yl)oxy)-2-oxo-6,9,12-trioxa-3-azatetradecan-14-yl)-4-(5-(4-(4-isopropyl-4H-1,2,4-triazol-3-yl)phenyl)pyridin-3-yl)-1H-pyrrolo[2,3-b]pyridine-2-carboxamide]?
pIC50 [1]: > 5.30; pIC50 (GST tagged PIP4KtypeIIB): 6.00 to 7.00

With `Cc1nc(CNC(=O)c2cc3c(-c4cncc(-c5ccc(N6CCCC6=O)cc5)c4)ccnc3[nH]2)oc1C` [Example 390] as the compound, how does the pIC50 [1] read?
Its pIC50 is 7.00 to 8.30.

And the pIC50 (GST tagged PIP4KtypeIIB)?
The pIC50 was 7.00 to 8.00.

How did the pIC50 [1] turn out when `CC(C)Cn1cnnc1-c1ccc(-c2cc(-c3ccnc4c3cc3n4CCN(CC4CC4)C3=O)cnc2N)cc1` [Example 391, 4-(6-amino-5-(4-(4-isobutyl-4H-1,2,4-triazol-3-yl)phenyl)pyridin-3-yl)-7-(cyclopropylmethyl)-8,9-dihydropyrido[3′,2′:4,5]pyrrolo[1,2-a]pyrazin-6(7H)-one] was run?
The pIC50 was 5.60 to 6.00.

And the pIC50 (GST tagged PIP4KtypeIIB)?
The pIC50 was 7.00 to 8.00.

What does the source list for `CC(C)n1cnnc1-c1ccc(-c2cc(-c3ccnc4oc(C(=O)NCC5CC5)cc34)cnc2N)cc1` [Example 392, 4-(6-amino-5-(4-(4-isopropyl-4H-1,2,4-triazol-3-yl)phenyl)pyridin-3-yl)-N-(cyclopropylmethyl)furo[2,3-b]pyridine-2-carboxamide]?
pIC50 [1]: 6.00 to 7.00; pIC50 (GST tagged PIP4KtypeIIB): 8.00 to 9.00

With `O=C(COc1cccc2c1C(=O)N(C1CCC(=O)NC1=O)C2=O)NCCOCCOCCOCCNC(=O)c1cc2c(-c3cncc(-c4ccc(N5CCCC5=O)cc4)c3)ccnc2[nH]1` (stereo not drawn) [Example 393, N-(1-((2-(2,6-dioxopiperidin-3-yl)-1,3-dioxoisoindolin-4-yl)oxy)-2-oxo-6,9,12-trioxa-3-azatetradecan-14-yl)-4-(5-(4-(2-oxopyrrolidin-1-yl)phenyl)pyridin-3-yl)-1H-pyrrolo[2,3-b]pyridine-2-carboxamide] as the compound, how does the pIC50 [1] read?
The pIC50 was 5.60 to 6.00.

And the pIC50 (GST tagged PIP4KtypeIIB)?
Its pIC50 is 6.00 to 7.00.

`CN1CCn2c(cc3c(-c4cncc(-c5ccc(-c6nncn6C6CC(F)(F)C6)cc5)c4)ccnc32)C1=O` [Example 394, 4-(5-(4-(4-(3,3-difluorocyclobutyl)-4H-1,2,4-triazol-3-yl)phenyl)pyridin-3-yl)-7-methyl-8,9-dihydropyrido[3′,2′:4,5]pyrrolo[1,2-a]pyrazin-6(7H)-one] was tested. Which pIC50 [1] did it give?
Its pIC50 is 5.30 to 5.60.

What about the pIC50 (GST tagged PIP4KtypeIIB) of the same compound?
The pIC50 was 6.00 to 7.00.

`O=C(COc1cccc2c1C(=O)N(C1CCC(=O)NC1=O)C2=O)NCCCCCCCCNC(=O)c1cc2c(-c3cncc(-c4ccc(N5CCCC5=O)cc4)c3)ccnc2[nH]1` (stereo not drawn) [Example 395, N-(8-(2-((2-(2,6-dioxopiperidin-3-yl)-1,3-dioxoisoindolin-4-yl)oxy)acetamido)octyl)-4-(5-(4-(2-oxopyrrolidin-1-yl)phenyl)pyridin-3-yl)-1H-pyrrolo[2,3-b]pyridine-2-carboxamide] was tested. Which pIC50 [1] did it give?
The pIC50 was 5.60 to 6.00.

And the pIC50 (GST tagged PIP4KtypeIIB)?
The pIC50 was 6.00 to 7.00.
